Test results: patent publication US9708268B2, “ROR modulators and their uses” (INNOV17 LLC, priority 2012, dated 2017)

How the values were obtained:
IL-17A [1] = experiment: TH17 cytokine inhibition as measured by ELISA (IL-17A); assay type: cell-based; conditions: 120 h; human CD4+ T cells differentiated to TH17 over 5 days, supernatant ELISA, vs DMSO
Description: (§1) Peripheral blood mononuclear cells (PBMCs) were sourced from freshly prepared leukocyte enriched plasma (buffy coat) from healthy volunteers from which PBMCs were isolated by density gradient centrifugation using Ficoll-Paque™ PLUS (GE Healthcare). Naïve CD4+ T cells were isolated using the Naïve CD4+ T cell Isolation Kit II (Miltenyi Biotec) as per manufacturer's instructions. CD4+ T cells were plated at 5×10^4 cells/well in 96 well plates pre-coated with immobilized human (h)-αCD3 antibody (eBioscience) then differentiated to TH17 cells using h-αCD28, h-αIFN-γ, h-αIL-4, h-IL-6, h-IL-23, […], h-TGF-β1 (eBioscience) and maintained in a cell culture incubator at 37° C. with 5% CO2 in TexMACS Medium (Miltenyi Biotec) supplemented with 1% Penicillin/Streptomycin (Lonza) over 5 days.
(§2) Human CD4+ T cells were differentiated to TH17 cells as described in the presence or absence of various concentrations of compounds in a final concentration of 0.1% DMSO in TexMACS medium. Supernatants were collected and stored at −20° C. until they were to be assayed for IL-17A, IL-17F, IL-17AF, IL-21 and/or IL-22 levels as determined by Ready-Set-Go ELISA kits (eBioscience) as per manufacturer's instructions. Endpoint absorbance was read at 450 nm and 570 nm according to manufacturer's instructions (eBioscience) using a microplate reader (Perkin Elmer). The percentage of cytokine inhibition was calculated with reference to DMSO treated cells and the IC50s were determined by GraphPad Prism software and presented in the table below.

IL-17AF = experiment: TH17 cytokine inhibition as measured by ELISA (IL-17AF); assay type: cell-based; conditions: 120 h; human CD4+ T cells differentiated to TH17 over 5 days, supernatant ELISA, vs DMSO
Description: as §1, §2

IL-17F [2] = experiment: TH17 cytokine inhibition as measured by ELISA (IL-17F); assay type: cell-based; conditions: 120 h; human CD4+ T cells differentiated to TH17 over 5 days, supernatant ELISA, vs DMSO
Description: as §1, §2

[3] = TH17 cell viability (Prestoblue); assay type: cell-based; design: concentration or dose not given beside the values; conditions: human; percentage of DMSO treated cells; read-out: % viability of compound treated TH17 cells
Description: as §1
Cells were assayed for viability in the presence or absence of compound using Prestoblue® Cell Viability Reagent (Life Technologies) as per manufacturer's instructions after 30 minutes incubation of TH17 cells with reagent. Absorbance was measured at 570 nm and 600 nm using a microplate reader (Perkin Elmer) and data were analyzed as per manufacturer's instructions. Cell viability was expressed as a percentage of DMSO treated cells.

FOXP3 = experiment: Real-time qRT-PCR gene expression in TH17 cells (FOXP3); assay type: cell-based, human; design: key: A: No change in gene expression observed relative to DMSO treated TH17 cells; B: Decreased gene expression observed relative to DMSO treated TH17 cells; C: Increased gene expression observed relative to DMSO treated TH17 cells; conditions: mRNA
Description: as §1
(§3) RNA was isolated from TH17 cells and cDNA was synthesized using the Verso cDNA kit (Thermo Scientific) as per manufacturer's instructions. IL-17A, IL-17F, IL-21, IL-22, G-CSF, IL-23R and FOXP3 gene expression were determined for compound treated and untreated TH17 cell samples using Solaris qPCR Gene expression assays (Thermo Scientific) with an iCycler iQ Real-Time PCR Detection System (Bio-Rad). Individual gene expression was normalized to a panel of six reference genes (ACTB, TBP, HPRT1, PGK1, TFRC and PPIA) (Thermo Scientific) and analyzed by REST 2009 (Qiagen) in accordance to MIQE guidelines (Bustin, et al. (2009) Clin. Chem. 55, 611-622), which is hereby incorporated by reference in its entirety). The effects of compounds on TH17 cytokine mRNA levels are presented as fold change in gene expression of compound treated TH17 cells relative to DMSO treated cells in the table below.

IL-23R = experiment: Real-time qRT-PCR gene expression in TH17 cells (IL-23R); assay type: cell-based, human; design: key: A: No change in gene expression observed relative to DMSO treated TH17 cells; B: Decreased gene expression observed relative to DMSO treated TH17 cells; C: Increased gene expression observed relative to DMSO treated TH17 cells; conditions: mRNA
Description: as §1, §3

TH17 cells = experiment: TH17 cellular proliferation (Prestoblue); assay type: cell-based, human; conditions: 3 μM compound, after 5 day TH17 differentiation, relative to DMSO treated cells
Description: as §1
Cellular proliferation was assessed in the presence or absence of 3 μM compound using Prestoblue® Cell Viability Reagent (Life Technologies) as per manufacturer's instructions using absorbance as the output measured by a microplate reader (Perkin Elmer) after 30 minutes of incubation of cells and reagent. A standard curve developed by plotting varying cell numbers versus absorbance was used to assess differences in cellular proliferation between compound treated or untreated cells after the 5 day TH17 differentiation period.

IL-22 [4] = experiment: Real-time qRT-PCR gene expression in TH17 cells (IL-22); assay type: cell-based, human; design: key: A: No change in gene expression observed relative to DMSO treated TH17 cells; B: Decreased gene expression observed relative to DMSO treated TH17 cells; C: Increased gene expression observed relative to DMSO treated TH17 cells; conditions: mRNA
Description: as §1, §3

IL-22 [5] = experiment: TH17 cytokine inhibition as measured by ELISA (IL-22); assay type: cell-based; conditions: 120 h; human CD4+ T cells differentiated to TH17 over 5 days, supernatant ELISA, vs DMSO
Description: as §1, §2

IL-17F [6] = experiment: Real-time qRT-PCR gene expression in TH17 cells (IL-17F); assay type: cell-based, human; design: key: A: No change in gene expression observed relative to DMSO treated TH17 cells; B: Decreased gene expression observed relative to DMSO treated TH17 cells; C: Increased gene expression observed relative to DMSO treated TH17 cells; conditions: mRNA
Description: as §1, §3

IL-21 = experiment: Real-time qRT-PCR gene expression in TH17 cells (IL-21); assay type: cell-based, human; design: key: A: No change in gene expression observed relative to DMSO treated TH17 cells; B: Decreased gene expression observed relative to DMSO treated TH17 cells; C: Increased gene expression observed relative to DMSO treated TH17 cells; conditions: mRNA
Description: as §1, §3

IL-17A [7] = experiment: Real-time qRT-PCR gene expression in TH17 cells (IL-17A); assay type: cell-based, human; design: key: A: No change in gene expression observed relative to DMSO treated TH17 cells; B: Decreased gene expression observed relative to DMSO treated TH17 cells; C: Increased gene expression observed relative to DMSO treated TH17 cells; conditions: mRNA
Description: as §1, §3

| Structure (SMILES) | IC50 (IL-17A [1]) [µM] | IC50 (IL-17AF) [µM] | IC50 (IL-17F [2]) [µM] | viability [3] [%] | Change in gene expression of compound treated TH17 cells relative to DMSO treated cells, FOXP3 (FOXP3) | Change in gene expression of compound treated TH17 cells relative to DMSO treated cells, IL-23R (IL-23R) | % change in TH17 cell number (TH17 cells) | Change in gene expression of compound treated TH17 cells relative to DMSO treated cells, IL-22 (IL-22 [4]) | IC50 (IL-22 [5]) [µM] | Change in gene expression of compound treated TH17 cells relative to DMSO treated cells, IL-17F (IL-17F [6]) | Change in gene expression of compound treated TH17 cells relative to DMSO treated cells, IL-21 (IL-21) | Change in gene expression of compound treated TH17 cells relative to DMSO treated cells, IL-17A (IL-17A [7]) |
| --- | --- | --- | --- | --- | --- | --- | --- | --- | --- | --- | --- | --- |
| NC(=O)c1ccc2c(c1)CCC(=O)N2Cc1ccc(C(O)(C(F)(F)F)C(F)(F)F)cc1 [Example 5, 1-(4-(1,1,1,3,3,3-hexafluoro-2-hydroxypropan-2-yl)benzyl)-2-oxo-1,2,3,4-tetrahydroquinoline-6-carboxamide] | > 10 | > 10 | > 10 | > 80 |  |  |  |  |  |  |  |  |
| CN(C)C(=O)c1ccc2c(c1)CCC(=O)N2Cc1ccc(C(O)(C(F)(F)F)C(F)(F)F)cc1 [Example 7, 1-(4-(1,1,1,3,3,3-hexafluoro-2-hydroxypropan-2-yl)benzyl)-N,N-dimethyl-2-oxo-1,2,3,4-tetrahydroquinoline-6-carboxamide] | < 10 | > 10 | < 10 | > 80 |  |  |  |  |  |  |  |  |
| NC(=O)c1ccc2c(ccc(=O)n2Cc2ccc(C(O)(C(F)(F)F)C(F)(F)F)cc2)c1 [Example 8, 1-(4-(1,1,1,3,3,3-hexafluoro-2-hydroxypropan-2-yl)benzyl)-2-oxo-1,2-dihydroquinoline-6-carboxamide] | < 10 |  | < 10 | > 80 | A | A | B (≦50% decrease in cell proliferation relative to DMSO treated TH17 cells) | C | > 10 | B | A | A |
| CNC(=O)c1ccc2c(ccc(=O)n2Cc2ccc(C(O)(C(F)(F)F)C(F)(F)F)cc2)c1 [Example 9, 1-(4-(1,1,1,3,3,3-hexafluoro-2-hydroxypropan-2-yl)benzyl)-N-methyl-2-oxo-1,2-dihydroquinoline-6-carboxamide] | > 10 |  | > 10 | > 80 | A | A | B (≦50% decrease in cell proliferation relative to DMSO treated TH17 cells) | B | > 10 | B | B | B |
| CN(C)C(=O)c1ccc2c(ccc(=O)n2Cc2ccc(C(O)(C(F)(F)F)C(F)(F)F)cc2)c1 [Example 10, 1-(4-(1,1,1,3,3,3-hexafluoro-2-hydroxypropan-2-yl)benzyl)-N,N-dimethyl-2-oxo-1,2-dihydroquinoline-6-carboxamide] | < 10 |  | > 10 | > 80 | A | A | B (≦50% decrease in cell proliferation relative to DMSO treated TH17 cells) | A | > 10 | A | A | A |
| NC(=O)c1ccc2c(c1)CCN2Cc1ccc(C(O)(C(F)(F)F)C(F)(F)F)cc1 [Example 11, 1-(4-(1,1,1,3,3,3-hexafluoro-2-hydroxypropan-2-yl)benzyl)indoline-5-carboxamide] | < 10 |  | < 10 | > 80 |  |  | B (≦50% decrease in cell proliferation relative to DMSO treated TH17 cells) |  | < 10 |  |  |  |
| CNC(=O)c1ccc2c(c1)CCN2Cc1ccc(C(O)(C(F)(F)F)C(F)(F)F)cc1 [Example 12, 1-(4-(1,1,1,3,3,3-hexafluoro-2-hydroxypropan-2-yl)benzyl)-N-methylindoline-5-carboxamide] | < 10 |  | < 10 | > 80 |  |  | B (≦50% decrease in cell proliferation relative to DMSO treated TH17 cells) |  | > 10 |  |  |  |
| CN(C)C(=O)c1ccc2c(c1)CCN2Cc1ccc(C(O)(C(F)(F)F)C(F)(F)F)cc1 [Example 13, 1-(4-(1,1,1,3,3,3-hexafluoro-2-hydroxypropan-2-yl)benzyl)-N,N-dimethylindoline-5-carboxamide] | < 10 |  | < 10 | > 80 |  |  | B (≦50% decrease in cell proliferation relative to DMSO treated TH17 cells) |  | < 10 |  |  |  |
